The values that follow come from US20200305426A1, “BOOSTERS FOR ANTIMICROBIAL, PRESERVATIVE AND BIOCIDAL APPLICATIONS” (EMERALD KALAMA CHEMICAL, LLC, priority 2017, published 2020).

In assay [1] the test system is S. aureus, E. coli, P. aeruginosa, C. albicans, and A. brasiliensis. As to the kind of experiment: Challenge test in skin lotion formulation, European Pharmacopeia criteria. It counts as cell-based. Conditions: for European Pharmacopeia two-day and 14-day criteria: skin lotion pH 6.5; for European Pharmacopeia 14-day criteria / European Pharmacopeia two-day criteria: skin lotion; for European Pharmacopeia 14-day criteria: 0.25 wt. % booster with 0.5 wt. % sodium benzoate and 0.66 wt. % benzyl alcohol; for European Pharmacopeia two-day criteria: 0.25 wt. % booster with 0.5 wt. % sodium benzoate and 1 wt. % benzyl alcohol. The procedure:
(§1) For the European Pharmacopeia, a “pass” test for efficacy is a two-log reduction for bacteria after two days, a three-log reduction in bacteria after […], a two-log reduction in mold and yeast at 14 days and no increase at 28 days.
Skin Lotion Formulation Experimental—An exemplary, model skin lotion having a pH of 6.5 as set forth below in Table 1 was prepared for testing. The invention is not limited to use in this specific lotion but was used to illustrate the advantages of the invention.
In this example, 3-phenyl propanol was used to enhance the performance of low concentrations of sodium benzoate and benzyl alcohol. This example evaluated boosting performance of 3-phenyl propanol in a skin lotion formulation having a pH of 6.5, the ingredients of which are listed in Table 1. Each formulation contained 0.25 wt. % of sodium benzoate and 0.25 wt. % of benzyl alcohol.
In this example, EDTA was used to enhance the performance of sodium benzoate and benzyl alcohol in a skin lotion formulation at […], the ingredients of which are set forth in Table 1. Each formulation contained 0.5 wt. % of sodium benzoate and 0.25 wt. % of EDTA with benzyl alcohol varying up to 1 wt. %. The control was comprised of 0.5 wt. % sodium benzoate and 1 wt. % benzyl alcohol without EDTA.
In this example, sodium gluconate was used to enhance the performance of sodium benzoate and benzyl alcohol in a skin lotion formulation at pH 6.5, the ingredients of which are set forth in Table 1. Each formulation contained 0.5 wt. % of sodium benzoate and 0.25 wt. % of sodium gluconate, with benzyl alcohol varying up to 1 wt. %. The control comprised 0.5 wt. % sodium benzoate and 1 wt. % benzyl alcohol without sodium gluconate.
In this example, caprylyl glycol was used to enhance the performance of sodium benzoate and benzyl alcohol in a skin lotion formulation at pH 6.5, the ingredients of which are set forth in Table 1. FIGS. 27 and 28 reflect log reduction data of colony forming units (CFU) of microbe strains exposed to sodium benzoate, benzyl alcohol, and caprylyl glycol concentrations in skin lotion media after two and fourteen days. […] A control was utilized comprising 0.5 wt. % sodium benzoate and 1 wt. % benzyl alcohol without caprylyl glycol.

In a further assay the test system is Pseudomonas aeruginosa. Conditions: tryptic soy broth pH 6.5; with 0.25 wt. % sodium benzoate and 0.25 wt. % benzyl alcohol; two days. The text has this: (§2) Challenge Testing Methodology—Experimental—Several industry standard testing methodologies exist for evaluating antimicrobial efficacy. Two common examples of such standards include United States Pharmacopeia (USP 51) and European Pharmacopeia (EP) testing methodology. These methodologies are particularly useful in that they have criteria and methodologies distinguishing between oral products, topical products and pharmaceutical products, among others.
In conducting the testing, the compound or product to be evaluated is separated out into individual containers, each being challenged with one of the method-specified microorganisms (S. aureus—ATCC 6538 USP51/EP, E. coli—ATCC 8739 EP, P. aeruginosa—ATCC 9027 USP51/EP, C. albicans—ATCC 10231 USP51/EP, and A. brasiliensis—ATCC 16404 USP51/EP) at a concentration of >1×10^5 CFU/g or ml. The initial concentration of each microorganism is determined by inoculating a control substance and using standard dilution and plating techniques. […] The inoculated broth is held at room temperature and is evaluated at specific intervals. USP-51 evaluates at the 14-day and 28-day intervals. EP evaluates results at 2-day, 7-day, 14-day, and 28-day. […] After a period of incubation (48 hours for bacteria, up to 5 days for yeast and mold) surviving microorganisms are counted, and the log reduction of each microorganism at each interval is reported. […]

Assay [2] has as its system A. brasiliensis, C. albicans, E. coli, P. aeruginosa, and S. aureus. As to the kind of experiment: Challenge test (USP-51 / European Pharmacopeia) in tryptic soy broth, log reduction of CFU. Format: cell-based.
In assay [3] the test system is K. aerogenes (ATCC 13048) and P. aeruginosa (ATCC 9027). Kind of assay: Challenge test in tryptic soy broth at pH 9.0, log reduction of CFU. It counts as cell-based. Conditions: 2.5 wt. % alone; tryptic soy broth pH 9.0; up to one week. The text has this:
FIG. 29 reflects log reduction data for colony forming units (CFU) of microbe strains in tryptic soy broth growth media at pH 9.0 up to 28 days.
FIG. 30 reflects log reduction data for colony forming units (CFU) of microbe strains exposed to benzylamine at 2.5 wt. % in tryptic soy broth at pH 9.0 up to one week.
Strains of K. aerogenes (ATCC 13048) and P. aeruginosa (ATCC 9027) were utilized for testing as they are commonly found in many water-based products, including without limitation cosmetics and coatings. These organisms were challenged into the soy broth using the same methods as in the other examples. Time points were selected based on time points from ASTM 2574, which is a method for evaluating antimicrobial efficacy in waterborne emulsion based paints.

For assay [4], the system named is A. brasiliensis, C. albicans, E. coli, P. aeruginosa, and S. aureus. Kind of assay: Challenge test (USP-51 / European Pharmacopeia) in tryptic soy broth, log reduction of CFU. Format: cell-based. Conditions: tryptic soy broth pH 6.5.
Source text: as §2
In conducting the testing, the compound or product to be evaluated is separated out into individual containers, each being challenged with one of the method-specified microorganisms (S. aureus—ATCC 6538 USP51/EP, E. coli—ATCC 8739 EP, P. aeruginosa—ATCC 9027 USP51/EP, C. albicans—ATCC 10231 USP51/EP, and A. brasiliensis—ATCC 16404 USP51/EP) at a concentration of >1×10^5 CFU/g or ml. The initial concentration of each microorganism is determined by inoculating a control substance and using standard dilution and plating techniques. […] The inoculated broth is held at room temperature and is evaluated at specific intervals. USP-51 evaluates at the 14-day and 28-day intervals. EP evaluates results at 2-day, 7-day, 14-day, and 28-day. At each contact time, the inoculated product is chemically neutralized and plated using standard dilution and plating techniques. After a period of incubation (48 hours for bacteria, up to 5 days for yeast and mold) surviving microorganisms are counted, and the log reduction of each microorganism at each interval is reported.
For the European Pharmacopeia, a “pass” test for efficacy is a two-log reduction for bacteria after two days, a three-log reduction in bacteria after […], a two-log reduction in mold and yeast at 14 days and no increase at 28 days. For the USP-51, a two-log reduction in bacteria is required at 14 days and no increase at 28 days. For mold and yeast, USP-51 requires no increase at 14 days and 28 days. “No increase” is defined as a […]. […]
The challenge testing was conducted by a Food and Drug Administration (FDA) certified outside testing lab utilizing standard USP-51 and European Pharmacopeia methodologies as summarized in the Challenge Testing Methodology section above. Antimicrobial efficacy was determined in tryptic soy broth growth media, pH-balanced with sodium hydroxide or hydrochloric acid as required to achieve specific pH ranges. […]
The boosting efficacy of various concentrations of EDTA (0 to 0.5 wt. %, with “0” being a control without the EDTA booster) in tryptic soy broth growth media at pH 6.5 was evaluated against various microbes (A. brasiliensis, C. albicans, E. coli, P. aeruginosa, and S. aureus). […]

In another assay the test system is A. brasiliensis. As to the kind of experiment: Challenge test in tryptic soy broth, log reduction of CFU. Format: cell-based. Conditions: with 0.25 wt. % sodium benzoate and 0.25 wt. % benzyl alcohol, 14 and 28 days. The procedure: as §1
Data was reported at 30 minutes, two days, fourteen days and twenty-eight days.
[…] The data was collected at 30 minutes, two days, fourteen days and twenty-eight days.

Setting [5] is: tryptic soy broth pH 8, booster at various concentrations with 0.25 wt. % sodium benzoate and 0.25 wt. % benzyl alcohol.

SMILES strings stand for the structures.

With `OCCCc1ccccc1` [3-phenyl propanol], in assay [1] (0.35 wt. % booster with 0.25 wt. % sodium benzoate and 0.25 wt. % benzyl alcohol), the “European Pharmacopeia two-day and 14-day criteria” value is “met the two-day and 14-day criteria”.
Turning to `O=C(O)CN(CCN(CC(=O)O)CC(=O)O)CC(=O)O` [EDTA, ethylenediaminetetraacetic acid], the “European Pharmacopeia 14-day criteria” value in assay [1] was “met the 14-day criteria”. Also, in assay [1], the “European Pharmacopeia two-day criteria” value is given as “met the two-day criteria”. The “activity against Pseudomonas aeruginosa” value in the assay on Pseudomonas aeruginosa is listed as “particularly good activity”. Further, the “antimicrobial performance (log reduction of CFU)” value is “improved antimicrobial performance” in assay [2] (tryptic soy broth pH 6.5, booster 0 to 0.5 wt. % with 0.25 wt. % sodium benzoate and 0.25 wt. % benzyl alcohol, 30 minutes, two, fourteen, twenty-eight days); “improved antimicrobial performance” in assay [2] (setting [5]). Besides, the “log reduction as a function of booster concentration” value in assay [2] (tryptic soy broth pH 8.0, booster 0 to 0.5 wt. % with 0.25 wt. % sodium benzoate and 0.25 wt. % benzyl alcohol) is reported as “increased log reduction with increasing concentrations”.
On to `OCc1ccccc1` [benzyl alcohol, reference compound], for which the “antimicrobial effectiveness (log reduction of CFU) compared to control” value in assay [3] is listed as “exactly the same as for benzylamine”.
The same measure, in the same setting: for `NCc1ccccc1` [benzylamine] the value was “antimicrobial effectiveness achieved”.
Turning to `CCCCCCC(O)CO` (stereo not drawn) [caprylyl glycol], in assay [1] (0.5 wt. % booster with 0.25 wt. % sodium benzoate and 0.25 wt. % benzyl alcohol), the “European Pharmacopeia two-day and 14-day criteria” value was “met the two-day and 14-day criteria”. For the same compound, the “antimicrobial performance (log reduction of CFU)” value in assay [2] (setting [5]) is recorded as “improved antimicrobial performance”. Further, the two-day log reduction entry in assay [2] (tryptic soy broth pH 8, caprylyl glycol up to 5 wt. %, regardless of concentration, 0.25 wt. % sodium benzoate and 0.25 wt. % benzyl alcohol, two days) is reported as “two-log reduction achieved against all microbes tested”; in assay [4] (caprylyl glycol up to 5 wt. %, regardless of concentration, 0.25 wt. % sodium benzoate and 0.25 wt. % benzyl alcohol, two days), “two-log reduction achieved against all microbes tested”. Besides, the “antimicrobial boosting potential at lowest use concentration” value in assay [4] (1 wt. % booster with 0.25 wt. % sodium benzoate and 0.25 wt. % benzyl alcohol) is on record as “outstanding antimicrobial boosting potential”.
As for `O=C([O-])[C@H](O)[C@@H](O)[C@H](O)[C@H](O)CO.[Na+]` [sodium gluconate], in the assay on A. brasiliensis (tryptic soy broth pH 6.5), the “activity against the mold A. brasiliensis” value is given as “Good activity”. Besides, in the assay with A. brasiliensis (tryptic soy broth pH 8), the “activity against the mold A. brasiliensis” value is “Particularly good activity”. In addition, in assay [1], the “European Pharmacopeia 14-day criteria” value is listed as “met the 14-day criteria” and the “European Pharmacopeia two-day criteria” value is “met the two-day criteria”. In addition, in assay [2] (setting [5]), the “antimicrobial performance (log reduction of CFU)” value is listed as “improved antimicrobial performance”. Moreover, in assay [4] (booster 0 to 0.5 wt. % with 0.25 wt. % sodium benzoate and 0.25 wt. % benzyl alcohol, seen at 14 and 28 days), the “log reduction as a function of booster concentration” value is “increased log reduction with increased concentration”. For the same compound, the “booster strength compared with EDTA” value in assay [4] (sodium benzoate/benzyl alcohol combination) is “not as strong a booster as EDTA”.
